Here are results for five compounds from PMC12842892, “Truncated Equinin B Variants Reveal the Sequence Determinants of Antimicrobial Selectivity” (Marine Drugs, 2026).

Test [1] has as its system Staphylococcus epidermidis DSM 20044. Type of test: cell-based. The procedure: (§1) For these studies we used reference strains Escherichia coli ATCC25922, Bacillus subtilis 168c, Staphylococcus epidermidis DSM 20044 (DSMZ Gmbh, Brauschweig, Germany) and Enterococcus hirae DSM 3320 (DSMZ Gmbh, Germany). Bacterial cells were inoculated into Mueller–Hinton Broth II (MHB II; Sigma-Aldrich, Steinheim, Germany) and grown to the mid-logarithmic phase, washed in sodium buffered saline (PBS, 137 mM NaCl, 2.7 mM KCl, 10 mM Na2HPO4, and 2 mM KH2PO4, pH 7.4). The culture was adjusted to ~1 × 10^6 CFU/mL and dispensed into 96-well microtiter plates. Peptides were tested in two-fold serial dilutions across a concentration range of 0.4–100 µM, each concentration assayed in duplicate. Growth control wells (bacteria + medium, no peptide) and sterility control wells (medium only) were included. In parallel, the inoculum density and purity were verified by plating serial dilutions of the bacterial culture on MHB agar. After incubation at 37 °C for 20 h under static conditions, bacterial growth was quantified by measuring optical density at 620 nm (OD 620). […] The experiment was repeated in three independent biological replicates.

For test [2], the system named is Gram-positive and Gram-negative bacteria. The following applies: cited from earlier work. From the text: Even though the discovery of antibiotics revolutionized medicine, their inappropriate use has enabled the spread of resistant bacteria and rendered commercially available antibiotics ineffective. Antibiotic resistance (AR) is one of the greatest threats, and the development of new molecules with antibacterial activity has become a global priority. Antimicrobial peptides (AMPs), naturally occurring defense molecules found across many species, represent a powerful alternative antibacterial strategy against antibiotic-resistant pathogens. As part of the innate immune response, ...

Test [3] concerns B. subtilis. The test can be described thus: Membrane permeability assay (propidium iodide uptake), B. subtilis. In kind it is cell-based, Bacillus subtilis. The following applies: 1 × 10^7 cells/mL in PBS; PI 2.5 µg/mL; up to 400 µM; 37 °C, 120 min; fluorescence 535/617 nm; three independent experiments in duplicates. The protocol: (§2) Bacterial membrane permeabilization was evaluated using propidium iodide (PI) uptake. PI is a membrane-impermeable dye: it cannot cross intact bacterial cytoplasmic membranes, but when the membrane integrity is compromised (for example, via peptide-mediated permeabilization), PI enters the cell, intercalates into nucleic acids (DNA and RNA) and fluorescence increases markedly. B. subtilis, E. hirae and S. epidermidis cells were grown to mid-logarithmic phase, harvested by centrifugation, washed once with PBS and diluted to a concentration of 1 × 10^7 cells/mL using PBS instead of growth medium. […] Fluorescence (excitation 535 nm, emission 617 nm) was monitored every 2 min for 120 min at 37 °C using a microplate reader (GloMax®, Promega, Madison, WI, USA). The time-course fluorescence curves were recorded for each peptide concentration (in duplicate for each time point, and the entire experiment was repeated three independent times). From each time-course fluorescence curve (for a given peptide concentration), a constant time-window (for example minutes 10 to 20) was selected where the fluorescence signal was stable or in the linear uptake phase. The fluorescence values within that window were averaged to provide a representative fluorescence uptake value for that peptide concentration. […]

Test [4] has as its system S. epidermidis. The test can be described thus: Membrane permeability assay (propidium iodide uptake), S. epidermidis. Type of test: cell-based, Staphylococcus epidermidis. The note with it: 1 × 10^7 cells/mL in PBS; PI 2.5 µg/mL; 37 °C, 120 min. The procedure:
as §2

For test [5], the system named is E. hirae. The experiment in a line: Membrane permeability assay (propidium iodide uptake), E. hirae. In kind it is cell-based, Enterococcus hirae. The note with it: 1 × 10^7 cells/mL in PBS; PI 2.5 µg/mL; 37 °C, 120 min. The procedure:
as §2

Test [6] concerns Escherichia coli ATCC25922. Type of test: cell-based. The following applies: E. coli ATCC25922; cation-adjusted MHB II; ~1 × 10^6 CFU/mL; two-fold dilutions; 37 °C, 20 h; OD 620; three independent replicates, duplicates. The protocol: as §1

In brackets after ≈: the same amount, converted by molar mass. Where two headings read alike, the source gives them in different places. Where a SMILES comes first, the peptide text is derived from it. Where no end group is shown, it is not given here.

Consider `CC[C@H](C)[C@H](NC(=O)[C@H](CS)NC(=O)[C@@H](N)CCCNC(=N)N)C(=O)N[C@@H](CCCNC(=N)N)C(=O)N[C@@H](CCCNC(=N)N)C(=O)N[C@@H](CS)C(=O)N[C@@H](Cc1ccccc1)C(=O)NCC(=O)N[C@@H](Cc1ccc(O)cc1)C(=O)N[C@@H](CS)C(=O)N[C@@H](CC(C)C)C(=O)O` [EB3, Arg-Cys-Ile-Arg-Arg-Cys-Phe-Gly-Tyr-Cys-Leu] (H-RCIRRCFGYCL-OH), for which the “MIC against S. epidermidis” value in test [1] (DSM 20044, 20 h) turned out to be 25 µM (≈ 34.7 µg/mL).
For “GQCQRKCLGHCSKKCPKHPQCRKRCIRRCFGYCL [Equinin B, 34-residue marine antimicrobial peptide isolated from the tentacle of Actinia equina]”, in test [2], the bactericidal concentrations is on record as 0.25 mg/mL and the “minimum inhibitory concentrations (MICs)” value is 1000 mg/L.
For “LL-37 (LLGDFFRKSKEKIGKEFKRIVQRIKDFLRNLVPRTES; Antibacterial peptide LL-37; UniProt P49913 134-170, looked up)”, in test [3], the “membrane permeabilization of B. subtilis (PI uptake), in words” value was “extensive membrane permeabilization”. Besides, in test [4], the “membrane permeabilization of S. epidermidis (PI uptake), in words” value is recorded as “unable to permeabilize”. Besides, the “membrane permeabilization of E. hirae (PI uptake), in words” value in test [5] is “unable to permeabilize”.
Consider “RRIRRRFGYRL [EB3-C, Arg-Arg-Ile-Arg-Arg-Arg-Phe-Gly-Tyr-Arg-Leu]”, for which the “MIC90, Staphylococcus epidermidis” value in test [1] (DSM 20044, 20 h) was in the range of 25 to 50 mg/L.
As for “RRIRRRGYRL-OH [EB3a-C, Arg-Arg-Ile-Arg-Arg-Arg-Gly-Tyr-Arg-Leu]”, the “antimicrobial activity against S. epidermidis, in words” value in test [1] (MIC assay, up to 100 µM) was “abolished activity”. Besides, in test [1] (S. epidermidis DSM 20044, cation-adjusted MHB II, ~1 × 10^6 CFU/mL, two-fold dilutions, 37 °C, 20 h, OD 620, three independent replicates, duplicates), the “MIC90, Staphylococcus epidermidis” value is more than 100 mg/L. Moreover, the “MIC90, Escherichia coli” value in test [6] was more than 100 mg/L.
